Source: patent US6335339B1, “Triazine antiviral compounds” (Scriptgen Pharmaceuticals, Inc., priority 1998, dated 2002)
Entries after “also recorded” stand apart in the source; their conditions may differ.

How the values were obtained:
εRNA = assay: RNase protection of end-labeled εRNA (B. Cereus RNase); type: binding, Hepatitis B virus; conditions: compound 0 to 200 μM, 25° C., 30 minutes
Protocol: RNase protection was assessed by incubating an end-labeled RNA with the amount of RNase needed to yield a ladder representing single cut events at each possible cleavage site in the RNA structure (based upon a gel electrophoresis analysis). The presence of a ligand bound to the RNA renders the binding site inaccessible to the RNases and therefore, the binding site will be shown by the disappearance or weakening of specific bands in the digestion pattern (FIGS. 258A and 258B).
Reaction mixtures (10 μl) containing 50 mM Tris-HCl, pH 7.5, 50 mM KCl, 0.5 mg/ml rRNA (as a carrier), 0.5 pmol of 3′-end ^32P-labeled εRNA, 0.05 units of B. Cereus RNase, and compound 5 at concentrations between 0 and 200 μM were incubated at 25° C. for 30 minutes. The reaction products were resolved by gel electrophoresis in polyacrylamide gels. B. Cereus nuclease is a single strand specific RNase. The results are shown in FIG. 258A, wherein the sections of the ladder of digestion products corresponding to cleavage events occurring in the bulge and loop sections of the εRNA structure. […] Conversely, the loop and other regions of the structure where not affected.

[1] = test system: RNA target containing only the bulge region of εRNA; assay: melting temperature of bulge RNA (OD 260 nm); type: binding, Hepatitis B virus; conditions: 2 μM RNA plus 10 μM compound; RNA without drug 65° C.
Protocol: The melting temperature of the RNA was determined by monitoring the change in optical density at 260 nm with increasing temperature.
Further, a smaller RNA target containing only the bulge region of εRNA was prepared, and the melting temperature (tm) of this RNA structure was determined by monitoring the change in optical density (OD) at 260 nm while increasing the temperature. A 1 ml aliquot of reaction mixture contained 50 mM NaCl, 10 mM sodium cacodylate, pH 7.0, 10% DMSO, and 2 μM bulge RNA.

SMILES: CCCCN(CCCC)c1nc(NN=Cc2ccc([N+](=O)[O-])cc2)nc(Nc2ccc([N+](=O)[O-])cc2)n1 [Compound 5]
- protection of εRNA from RNase cleavage (εRNA): protects specific positions of RNA from digestion with RNases; also recorded: decrease in cleavage at specific positions of the bulge

SMILES: Cc1[nH]c2ccccc2c1C=NNc1nc(Nc2ccccc2)nc(Nc2ccc([N+](=O)[O-])cc2)n1 [Compound 6]
- melting temperature (tm) of bulge RNA [1]: 83 °C
